# Test results published in article PMC12661400, “Oral bioavailable ITRI-148 degrades androgen receptor variants and overcomes antiandrogen resistance in advanced prostate cancer” (Neoplasia (New York, N.Y.), 2025).
# Read-outs that look alike come from different tables or passages of the source.
# Experiments:
# AR-V7 = target: T1, AR-V7 (Homo sapiens, UniProt P10275); test: AR-V7 degradation by immunoblotting in CRPC cells; type: cell-based
# T1 construct: endogenous in cells; host or cells: VCaP, CWR22Rv1
# T1 sequence (P10275 1-644 isoform P10275-3): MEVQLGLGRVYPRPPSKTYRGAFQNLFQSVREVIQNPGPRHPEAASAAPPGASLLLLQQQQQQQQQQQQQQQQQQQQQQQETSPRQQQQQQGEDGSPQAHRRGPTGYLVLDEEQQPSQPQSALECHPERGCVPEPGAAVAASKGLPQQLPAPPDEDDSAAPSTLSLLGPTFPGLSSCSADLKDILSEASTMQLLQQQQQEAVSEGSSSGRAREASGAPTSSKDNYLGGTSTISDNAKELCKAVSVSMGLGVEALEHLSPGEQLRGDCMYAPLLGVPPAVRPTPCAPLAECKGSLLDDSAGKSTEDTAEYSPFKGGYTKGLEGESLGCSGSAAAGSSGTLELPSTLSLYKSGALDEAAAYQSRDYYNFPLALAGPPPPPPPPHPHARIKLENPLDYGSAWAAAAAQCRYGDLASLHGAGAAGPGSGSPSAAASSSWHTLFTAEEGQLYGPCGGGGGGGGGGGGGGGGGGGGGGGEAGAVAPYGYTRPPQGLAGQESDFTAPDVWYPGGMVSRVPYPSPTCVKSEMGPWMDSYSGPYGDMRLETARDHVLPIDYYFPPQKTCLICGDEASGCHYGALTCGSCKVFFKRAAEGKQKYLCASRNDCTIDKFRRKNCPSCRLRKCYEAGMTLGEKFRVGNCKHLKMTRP
# Protocol: Cell lysis, Western blotting, and AR ubiquitination were performed as described in [17]. Primary antibodies: AR (Millipore 06-680), AR-V7 (RevMAb Biosciences 31-1109-00), PSA (ABclonal A4355), NKX3-1 (Cell Signaling Technology 92998), GAPDH (Cell Signaling Technology 2118) and β-Actin (Sigma-Aldrich A5441).
# Fig. 1 ITRI-148 induces degradation of both AR and AR-V7 proteins in CRPC cells. […] (B) Expression of Flag-tagged AR-V7 in 293T cells following ITRI-148 treatment. Cells transiently expressing Flag-AR-V7 were pretreated with 50 μg/mL cycloheximide for 1 hour, then exposed to ITRI-148 at the indicated concentrations for 8 hours. AR-V7 expression was detected using an anti-Flag antibody. (C) Representative immunoblots showing AR protein levels in VCaP and CWR22Rv1 cells after 48 hours of ITRI-148 treatment. An N-terminal AR antibody was used to detect both full-length AR and LBD-truncated variants (AR-V(ΔLBD)) in CWR22Rv1 cells, while AR-V7 was detected using an AR-V7-specific antibody. DC₅₀ values were calculated from normalized band intensities, and Dₘₐₓ represents the maximal degradation achieved at 10 μM ITRI-148. (D) Immunofluorescence staining of AR after 24 or 48 hours of ITRI-148 treatment, detected using an N-terminal AR antibody. […] (F) Western blot analysis of ectopically expressed wild-type (WT) and mutant Myc-tagged AR in DU145 cells following 24 hours of treatment with 10 μM ITRI-148. Quantified AR levels are as indicated. TEXT PRINTED IN THE PICTURE: (C) ITRI-148: DC50 (μM) AR CWR22Rv1: 1.23 ± 1.86; DC50 (μM) AR VCaP: 0.05 ± 0.03; DC50 (μM) AR-V7 CWR22Rv1: 1.20 ± 0.92; DC50 (μM) AR-V7 VCaP: 0.02 ± 0.02; Dmax (%) AR CWR22Rv1: 65.02 ± 19.91; Dmax (%) AR VCaP: 80.49 ± 5.61; Dmax (%) AR-V7 CWR22Rv1: 72.10 ± 3.15; Dmax (%) AR-V7 VCaP: 91.36 ± 2.05
# [1] = Repeated-dose toxicity study: absolute organ weights; type: in vivo, Sprague-Dawley rats; conditions: rats
# Protocol: Repeated-dose toxicity and toxicokinetic studies
# Repeated-dose oral toxicity study and toxicokinetic (TK) profiling was conducted in Sprague-Dawley rats. ITRI-148 was administered once daily using oral gavage at doses of 100, 300, 600, and 1000 mg/kg/day for 7 consecutive days, followed by a 7-day recovery period. Each dose group comprised 3 animals designated for toxicokinetic (TK) analysis and 6 animals for dose-range finding (DRF) evaluation. Clinical observations, body weights, and food consumption were monitored daily throughout the dosing and recovery periods. […]
# All samples were analyzed in duplicate. Hematology and serum clinical chemistry analyses were performed on Day 7 (end of dosing) and Day 14 (end of recovery). At necropsy, organ weights (including heart, liver, kidney, spleen, thymus, and adrenal glands) were recorded, and gross pathological changes were examined. All procedures were conducted in compliance with institutional animal care and use guidelines. […]
# Targeting androgen receptor and the variants by an orally bioavailable
# Proteolysis Targeting Chimeras compound in castration resistant prostate cancer
# [2] = VCaP, maximal degradation at 10 μM
# [3] = PO 100 mg/kg/day 7 days, Day 14 (recovery)
# [4] = PO 300 mg/kg/day 7 days, Day 14 (recovery)
# [5] = PO 600 mg/kg/day 7 days, Day 14 (recovery)
# [6] = PO 1000 mg/kg/day 7 days, Day 7
# [7] = PO 1000 mg/kg/day 7 days, Day 14 (recovery)
smiles,measurement,setting,value
O=C1CCC(N2C(=O)c3cccc(NCC(=O)N4CCC(N5CCC(C#Cc6ccc(C7CCN(C8=Nn9c(nnc9C(F)(F)F)CC8)CC7)cc6)CC5)CC4)c3C2=O)C(=O)N1 (stereo not drawn) [ITRI-148],DC50,"AR-V7; CWR22Rv1, 48 hours, read-out: DC50 AR-V7",1200 ± 920 nM
same,Dmax at 10 µM,"AR-V7; CWR22Rv1, CWR22Rv1, maximal degradation at 10 μM",72.1 ± 3.15%
same,DC50,"AR-V7; VCaP cells, read-out: half-maximal degradation concentration (DC50) for AR-V7",~20 nM
same,DC50,"AR-V7; VCaP, 48 hours, read-out: DC50 AR-V7",20 ± 20 nM
same,Dmax AR-V7,AR-V7; [2],91%
same,Dmax at 10 µM,AR-V7; [2],91.4 ± 2.05%
same,Absolute organ weight: Heart,"[1]; PO 100 mg/kg/day 7 days, Day 7",1.417 ± 0.443 g
same,Absolute organ weight: Kidney,"[1]; PO 100 mg/kg/day 7 days, Day 7",2.656 ± 0.136 g
same,Absolute organ weight: Liver,"[1]; PO 100 mg/kg/day 7 days, Day 7",13.915 ± 1.565 g
same,Absolute organ weight: Spleen,"[1]; PO 100 mg/kg/day 7 days, Day 7",0.536 ± 0.112 g
same,Absolute organ weight: Thymus,"[1]; PO 100 mg/kg/day 7 days, Day 7",0.419 ± 0.079 g
same,Absolute organ weight: adrenal glands,"[1]; PO 100 mg/kg/day 7 days, Day 7",0.056 ± 0.012 g
same,Absolute organ weight: Heart,[1]; [3],1.139 ± 0.079 g
same,Absolute organ weight: Kidney,[1]; [3],2.65 ± 0.021 g
same,Absolute organ weight: Liver,[1]; [3],11.06 ± 0.639 g
same,Absolute organ weight: Spleen,[1]; [3],0.538 ± 0.05 g
same,Absolute organ weight: Thymus,[1]; [3],0.319 ± 0.039 g
same,Absolute organ weight: adrenal glands,[1]; [3],0.084 ± 0.059 g
same,Absolute organ weight: Heart,"[1]; PO 300 mg/kg/day 7 days, Day 7",1.369 ± 0.173 g
same,Absolute organ weight: Kidney,"[1]; PO 300 mg/kg/day 7 days, Day 7",2.966 ± 0.426 g
same,Absolute organ weight: Liver,"[1]; PO 300 mg/kg/day 7 days, Day 7",13.69 ± 1.088 g
same,Absolute organ weight: Spleen,"[1]; PO 300 mg/kg/day 7 days, Day 7",0.558 ± 0.035 g
same,Absolute organ weight: Thymus,"[1]; PO 300 mg/kg/day 7 days, Day 7",0.377 ± 0.079 g
same,Absolute organ weight: adrenal glands,"[1]; PO 300 mg/kg/day 7 days, Day 7",0.058 ± 0.022 g
same,Absolute organ weight: Heart,[1]; [4],1.252 ± 0.229 g
same,Absolute organ weight: Kidney,[1]; [4],2.748 ± 0.366 g
same,Absolute organ weight: Liver,[1]; [4],12.08 ± 0.721 g
same,Absolute organ weight: Spleen,[1]; [4],0.629 ± 0.088 g
same,Absolute organ weight: Thymus,[1]; [4],0.314 ± 0.042 g
same,Absolute organ weight: adrenal glands,[1]; [4],0.06 ± 0.016 g
same,Absolute organ weight: Heart,"[1]; PO 600 mg/kg/day 7 days, Day 7",1.269 ± 0.209 g
same,Absolute organ weight: Kidney,"[1]; PO 600 mg/kg/day 7 days, Day 7",2.661 ± 0.129 g
same,Absolute organ weight: Liver,"[1]; PO 600 mg/kg/day 7 days, Day 7",13.396 ± 2.201 g
same,Absolute organ weight: Spleen,"[1]; PO 600 mg/kg/day 7 days, Day 7",0.509 ± 0.093 g
same,Absolute organ weight: Thymus,"[1]; PO 600 mg/kg/day 7 days, Day 7",0.319 ± 0.054 g
same,Absolute organ weight: adrenal glands,"[1]; PO 600 mg/kg/day 7 days, Day 7",0.058 ± 0.001 g
same,Absolute organ weight: Heart,[1]; [5],1.242 ± 0.08 g
same,Absolute organ weight: Kidney,[1]; [5],2.759 ± 0.179 g
same,Absolute organ weight: Liver,[1]; [5],12.382 ± 0.877 g
same,Absolute organ weight: Spleen,[1]; [5],0.594 ± 0.066 g
same,Absolute organ weight: Thymus,[1]; [5],0.394 ± 0.041 g
same,Absolute organ weight: adrenal glands,[1]; [5],0.07 ± 0.027 g
same,Absolute organ weight: Heart,[1]; [6],1.259 ± 0.118 g
same,Absolute organ weight: Kidney,[1]; [6],3.022 ± 0.127 g
same,Absolute organ weight: Liver,[1]; [6],13.349 ± 1.256 g
same,Absolute organ weight: Spleen,[1]; [6],0.388 ± 0.035 g
same,Absolute organ weight: Thymus,[1]; [6],0.121 ± 0.021 g
same,Absolute organ weight: adrenal glands,[1]; [6],0.068 ± 0.012 g
same,Absolute organ weight: Heart,[1]; [7],1.306 ± 0.066 g
same,Absolute organ weight: Kidney,[1]; [7],2.763 ± 0.229 g
same,Absolute organ weight: Liver,[1]; [7],11.072 ± 0.774 g
same,Absolute organ weight: Spleen,[1]; [7],0.506 ± 0.023 g
same,Absolute organ weight: Thymus,[1]; [7],0.355 ± 0.119 g
same,Absolute organ weight: adrenal glands,[1]; [7],0.062 ± 0.009 g
